Tests used:
clinical = type: in vivo, human
[1] = Sorafenib and N-oxide metabolite plasma pharmacokinetics; type: in vivo, human
[2] = Maximum, Day 1, in combination with tanespimycin
[3] = Maximum, Day −1, sorafenib given alone
[4] = Mean, Day 1, in combination with tanespimycin, steady-state, eleven patients
[5] = Mean, Day −1, sorafenib given alone, steady-state, eleven patients
[6] = Minimum, Day 1, in combination with tanespimycin
[7] = Minimum, Day −1, sorafenib given alone

Cmax on days 1 and 15 compared (clinical; concurrent sorafenib)	AUClast [1, 2]	Cmax [1, 2]	Tmax [1, 2]	AUClast [1, 3]	Cmax [1, 3]	Tmax [1, 3]	AUClast [1, 4]	Cmax [1, 4]	Tmax [1, 4]	AUClast [1, 5]	Cmax [1, 5]	AUClast [1, 6]	Cmax [1, 6]	AUClast [1, 7]	Cmax [1, 7]	Tmax [1, 7]	SMILES	Cmax (end of infusion) and AUC versus tanespimycin dose (clinical; in vivo, iv)
similar	–	–	–	–	–	–	–	–	–	–	–	–	–	–	–	–	CO[C@H]1/C=C/C=C(\C)C(=O)NC2=CC(=O)C(N)=C(C[C@@H](C)C[C@H](OC)[C@H](O)[C@@H](C)/C=C(\C)[C@@H]1OC(N)=O)C2=O [17-AG]	increased with increasing tanespimycin dose
–	40.5 µM·h	7.3 µM	10.0 h	45.7 µM·h	6.4 µM	10.0 h	16.1 µM·h	2.6 µM	8.5 h	15.5 µM·h	2 µM	5.5 µM·h	0.7 µM	3.2 µM·h	0.5 µM	1.0 h	CNC(=O)c1cc(Oc2ccc(NC(=O)Nc3ccc(Cl)c(C(F)(F)F)c3)cc2)cc[n+]1[O-] [N-oxide sorafenib]	–

— publication PMC2909581 (Clinical cancer research : an official journal of the …, 2010)
